Source: publication PMC3125149, “SCYX-7158, an Orally-Active Benzoxaborole for the Treatment of Stage 2 Human African Trypanosomiasis” (PLoS Neglected Tropical Diseases, 2011)
Read-outs that look alike come from different tables or passages of the source.

Columns and labels:
Lipophilicity = assay type: physicochemical
From the text: Table 3 In vitro physicochemical and ADME properties of SCYX-7158. | column: Value

[1] = biological target: T1, MDCKII-hMDR1 cells (P-glycoprotein) (Homo sapiens, UniProt P08183); test: MDCKII-hMDR1 monolayer permeability and P-gp efflux; assay type: in vitro ADME
T1 construct: expressed in transfected cells; host or cells: MDCKII (canine kidney) cells, provided by P. Borst
Experimental: (§1) T. b. brucei was cultured in complete HMI-9 medium,[20] which contains 10% fetal bovine serum (FBS) (Invitrogen, Carlsbad, CA), 10% Serum Plus medium (SAFC Biosciences, Lenexa, KS), and 100 units/mL penicillin and 0.1 mg/mL streptomycin. The trypanosomes were propagated in T-25 vented cap flasks (Corning Inc., Lowell, MA) at 37°C and 5% CO2 with humidity. To ensure log growth phase, trypanosomes were sub-cultured at appropriate dilutions (typically 1∶100) every 2–3 days in fresh HMI-9 medium. T. b. rhodesiense parasites were grown in MEM medium with Earle's salts supplemented with 15% horse serum. For T. b. gambiense, the MEM medium was supplemented with 5% heat-inactivated fetal calf serum (FCS) and 15% human serum.[21] L929 mouse fibroblast cells (ATCC CCL1, American Type Culture Collection, Rockville, MD) were used to determine parasite versus mammalian cell selectivity. Cells were cultured in Dulbecco's Modified Eagle Medium (DMEM), supplemented with 10% FBS, L-glutamine and 100 units/mL penicillin and 0.1 mg/mL streptomycin. MDCKII-hMDR1 cells were generously provided by P. Borst at the Netherlands Kancer Institute. Cells were cultured in DMEM with Glutamax, 10% (v/v) FBS, and 100 units/mL penicillin and 0.1 mg/mL streptomycin. Cell monolayers were fed with cell culture media 24 h after seeding and used for permeability studies 3 days later.
(§2) The propensity of the compound to cross the blood-brain barrier was examined using an in vitro MDCKII-hMDR1 transwell assay.[24] MDCKII-hMDR1 cells were seeded at density of 3×10^5 cells per well onto microporous polycarbonate membranes in 12 well Costar Transwell plates (Corning Inc., Lowell, MA). The cells were used for permeability studies 3 days later. Trans-epithelial resistance (TEER) was measured for each insert to ensure the integrity of the monolayer (acceptable TEER >50 Ωcm^2).
(§3) The permeability and propensity for P-gp-mediated efflux was evaluated by adding each compound at a concentration of 3 µM, in the presence or absence of 2 µM GF120918, to the apical compartment. Competency of the P-gp efflux transporter was confirmed by assay of propranolol (non-substrate) and amprenavir (substrate). Cell monolayers were incubated in triplicate with shaking (160 rpm) at 37°C in a 5% CO2-enriched humidified atmosphere for 1 h. Samples were removed from the apical and basolateral compartments after incubation and assayed for test compound concentrations by LC-MS/MS. Values for mass balance, PappA→B, PappA→B+GF918, and absorption quotient (AQ) were calculated for each compound.[25], [26], [27] Acceptance criterion for mass balance was 70–120%.

[2] = biological target: T2, P-glycoprotein (human MDR1) (Homo sapiens, UniProt P08183); test: as above; assay type: in vitro ADME; settings: dog
T2 construct: expressed in transfected cells; host or cells: MDCKII (canine kidney) cells, provided by P. Borst
Experimental: as §1, §2, §3

[3] = Metabolic stability in liver microsomal and S9 fractions; assay type: in vitro ADME, rodents, cynomolgus monkey and humans; settings: CD-1 (mouse), Sprague-Dawley (rat), beagle (dog), cynomolgus monkey, human, liver microsomes and liver S9 fractions, all species
Experimental: Metabolic stability was evaluated using mixed gender CD-1 mouse or human liver microsomal fractions (XenoTech, Lenexa, KS). Compounds (1 µM) were incubated with microsomes (1.05 mg/mL protein) for 0, 10, 15 and 30 min at 37°C in an oxygen and humidity enriched environment in the presence of an NADPH-regenerating system. Each compound was also incubated, under the same conditions, with CD-1 mouse, Sprague-Dawley rat, beagle dog, cynomolgus monkey, and human liver S9 sub-cellular fractions (2 mg/mL protein)[23] for 0, 15, 30 and 60 min. At the end of each incubation period, the reactions were quenched with 3 volumes of ice-cold methanol. Supernatants from the incubation mixtures were analyzed for parent compound by LC-MS/MS. Metabolic competencies of microsomal and S9 fractions were confirmed using control compounds 7-ethoxycoumarin, propranolol and verapamil. Intrinsic clearance (CLint) and half-life (t½) values were determined for each compound.

CYP2D6 = biological target: T3, CYP2D6 (Homo sapiens, UniProt P10635); test: P450-Glo cytochrome P450 inhibition; assay type: biochemical; settings: human recombinant CYP2D6
T3 construct: purchased Promega Inc., Madison, WI
Experimental: (§4) The potential for compound to exert drug-drug interactions that are mediated through inhibition of cytochrome P450 activities was assessed using P450-Glo assay kits (Promega Inc., Madison, WI). Assays for human cytochrome P450 isoforms 3A4, 1A2, 2C9, 2C19, and 2D6 were performed in triplicate according to the manufacturer's instructions over the concentration range 1–100 µM (n = 6 levels). Briefly, SCYX-7158 was added to membrane preparations containing human recombinant CYP450 enzymes together with luminogenic substrates specific to each isoform. Specific CYP450 inhibitors were included as positive controls (ketoconazole, CYP3A4; alpha-napthoflavone, 1A2; sulfaphenazole, CYP2C9; troglitazone, 2C19, and quinidine, CYP2D6). Reactions were initiated by addition of NADPH-regenerating solution and were allowed to incubate for an additional 15–30 min (isoform dependent). Luciferin detection reagent, containing the luciferin-labeled probe substrate, was then added. Luminescence was recorded on an EnVision Multilabel Plate Reader. Calculation of IC50 concentrations for each enzyme was determined using GraphPad Prism (V5.01).

CYP1A2 = biological target: T4, CYP1A2 (Homo sapiens, UniProt P05177); test: P450-Glo cytochrome P450 inhibition; assay type: biochemical; settings: human recombinant CYP1A2
T4 construct: purchased Promega Inc., Madison, WI
Experimental: as §4

CYP2C9 = biological target: T5, CYP2C9 (Homo sapiens, UniProt P11712); test: P450-Glo cytochrome P450 inhibition; assay type: biochemical; settings: human recombinant CYP2C9
T5 construct: purchased Promega Inc., Madison, WI
Experimental: as §4

CYP3A4 = biological target: T6, CYP3A4 (Homo sapiens, UniProt P08684); test: P450-Glo cytochrome P450 inhibition; assay type: biochemical; settings: human recombinant CYP3A4
T6 construct: purchased Promega Inc., Madison, WI
Experimental: as §4

hERG potassium channel = hERG potassium channel (Homo sapiens, UniProt Q12809); test: hERG radioligand binding assay; settings: at 10 µM
Chain of hERG potassium channel (Q12809 whole entry): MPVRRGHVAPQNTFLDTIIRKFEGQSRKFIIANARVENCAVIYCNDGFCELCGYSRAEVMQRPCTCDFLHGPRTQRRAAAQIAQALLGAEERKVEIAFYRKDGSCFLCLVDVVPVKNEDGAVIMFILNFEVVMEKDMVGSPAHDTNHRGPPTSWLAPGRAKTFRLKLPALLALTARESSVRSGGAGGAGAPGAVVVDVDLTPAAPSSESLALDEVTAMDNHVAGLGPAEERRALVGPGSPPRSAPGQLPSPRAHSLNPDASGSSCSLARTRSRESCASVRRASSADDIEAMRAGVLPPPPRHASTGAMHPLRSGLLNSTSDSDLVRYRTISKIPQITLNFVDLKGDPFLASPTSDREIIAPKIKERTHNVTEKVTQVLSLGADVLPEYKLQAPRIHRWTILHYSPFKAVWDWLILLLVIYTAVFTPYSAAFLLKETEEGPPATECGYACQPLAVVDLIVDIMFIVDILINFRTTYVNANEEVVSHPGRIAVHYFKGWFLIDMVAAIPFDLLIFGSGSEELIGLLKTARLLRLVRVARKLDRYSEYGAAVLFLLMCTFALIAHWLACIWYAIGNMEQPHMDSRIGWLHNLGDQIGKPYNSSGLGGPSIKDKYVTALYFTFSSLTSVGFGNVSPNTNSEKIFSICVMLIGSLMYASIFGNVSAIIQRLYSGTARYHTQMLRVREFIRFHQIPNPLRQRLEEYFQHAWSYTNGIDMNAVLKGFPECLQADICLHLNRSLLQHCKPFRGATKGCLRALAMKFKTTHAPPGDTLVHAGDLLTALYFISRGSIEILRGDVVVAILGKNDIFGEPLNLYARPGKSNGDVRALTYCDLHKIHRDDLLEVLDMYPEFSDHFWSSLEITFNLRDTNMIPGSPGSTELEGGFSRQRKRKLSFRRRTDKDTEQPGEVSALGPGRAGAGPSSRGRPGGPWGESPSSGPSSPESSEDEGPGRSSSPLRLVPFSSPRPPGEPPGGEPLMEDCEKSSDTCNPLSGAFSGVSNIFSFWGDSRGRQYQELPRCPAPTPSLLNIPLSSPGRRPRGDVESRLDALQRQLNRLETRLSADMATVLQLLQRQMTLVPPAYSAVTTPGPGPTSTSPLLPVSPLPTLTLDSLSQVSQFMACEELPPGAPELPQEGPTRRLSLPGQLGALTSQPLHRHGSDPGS

T4 sequence (P05177 whole entry): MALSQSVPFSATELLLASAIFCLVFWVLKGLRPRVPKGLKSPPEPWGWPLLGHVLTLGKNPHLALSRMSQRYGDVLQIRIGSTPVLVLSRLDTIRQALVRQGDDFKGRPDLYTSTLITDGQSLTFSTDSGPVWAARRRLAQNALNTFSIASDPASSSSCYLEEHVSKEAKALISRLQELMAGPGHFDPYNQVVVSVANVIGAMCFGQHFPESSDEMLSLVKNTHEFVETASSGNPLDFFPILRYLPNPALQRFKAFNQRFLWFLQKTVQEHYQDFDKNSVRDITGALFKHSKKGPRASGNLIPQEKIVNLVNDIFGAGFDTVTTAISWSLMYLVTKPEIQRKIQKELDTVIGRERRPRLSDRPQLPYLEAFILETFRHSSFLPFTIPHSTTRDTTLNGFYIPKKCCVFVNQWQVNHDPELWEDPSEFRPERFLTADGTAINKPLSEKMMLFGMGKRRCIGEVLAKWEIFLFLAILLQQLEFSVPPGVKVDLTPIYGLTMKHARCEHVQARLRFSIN
T2 sequence (P08183 whole entry): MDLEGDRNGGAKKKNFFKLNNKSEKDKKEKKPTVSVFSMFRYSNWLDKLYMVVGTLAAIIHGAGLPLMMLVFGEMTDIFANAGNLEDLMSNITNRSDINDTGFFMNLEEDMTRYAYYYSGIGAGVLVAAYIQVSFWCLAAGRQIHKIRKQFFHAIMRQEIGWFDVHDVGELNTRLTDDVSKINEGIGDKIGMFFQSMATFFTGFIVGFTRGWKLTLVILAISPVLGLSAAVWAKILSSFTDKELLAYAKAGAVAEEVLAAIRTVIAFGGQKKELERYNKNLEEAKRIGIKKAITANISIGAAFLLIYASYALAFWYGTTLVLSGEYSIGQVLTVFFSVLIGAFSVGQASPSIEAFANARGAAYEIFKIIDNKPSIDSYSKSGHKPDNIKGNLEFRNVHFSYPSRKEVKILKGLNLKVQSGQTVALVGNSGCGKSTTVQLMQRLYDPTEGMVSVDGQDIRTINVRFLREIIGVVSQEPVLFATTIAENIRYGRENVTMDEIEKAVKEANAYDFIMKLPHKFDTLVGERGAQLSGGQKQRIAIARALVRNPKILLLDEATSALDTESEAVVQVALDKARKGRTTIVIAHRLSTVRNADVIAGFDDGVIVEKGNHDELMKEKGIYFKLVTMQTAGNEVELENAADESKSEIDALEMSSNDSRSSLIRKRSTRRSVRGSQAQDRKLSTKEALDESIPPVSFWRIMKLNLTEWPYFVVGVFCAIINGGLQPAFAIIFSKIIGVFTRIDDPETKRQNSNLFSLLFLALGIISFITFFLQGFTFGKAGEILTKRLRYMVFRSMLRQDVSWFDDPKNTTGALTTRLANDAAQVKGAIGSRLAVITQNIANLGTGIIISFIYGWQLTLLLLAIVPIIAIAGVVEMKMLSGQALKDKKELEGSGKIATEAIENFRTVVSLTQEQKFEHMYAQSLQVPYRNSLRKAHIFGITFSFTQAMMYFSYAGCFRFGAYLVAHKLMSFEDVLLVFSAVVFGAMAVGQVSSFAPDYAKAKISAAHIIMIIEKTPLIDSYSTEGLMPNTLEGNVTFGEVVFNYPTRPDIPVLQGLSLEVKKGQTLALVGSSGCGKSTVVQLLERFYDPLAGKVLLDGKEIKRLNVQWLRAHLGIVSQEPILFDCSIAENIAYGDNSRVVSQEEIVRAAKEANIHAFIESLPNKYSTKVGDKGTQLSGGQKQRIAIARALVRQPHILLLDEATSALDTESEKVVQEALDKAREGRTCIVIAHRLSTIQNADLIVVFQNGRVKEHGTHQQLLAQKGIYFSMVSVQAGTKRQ
T1 sequence (P08183 whole entry): as above
T6 sequence (P08684 whole entry): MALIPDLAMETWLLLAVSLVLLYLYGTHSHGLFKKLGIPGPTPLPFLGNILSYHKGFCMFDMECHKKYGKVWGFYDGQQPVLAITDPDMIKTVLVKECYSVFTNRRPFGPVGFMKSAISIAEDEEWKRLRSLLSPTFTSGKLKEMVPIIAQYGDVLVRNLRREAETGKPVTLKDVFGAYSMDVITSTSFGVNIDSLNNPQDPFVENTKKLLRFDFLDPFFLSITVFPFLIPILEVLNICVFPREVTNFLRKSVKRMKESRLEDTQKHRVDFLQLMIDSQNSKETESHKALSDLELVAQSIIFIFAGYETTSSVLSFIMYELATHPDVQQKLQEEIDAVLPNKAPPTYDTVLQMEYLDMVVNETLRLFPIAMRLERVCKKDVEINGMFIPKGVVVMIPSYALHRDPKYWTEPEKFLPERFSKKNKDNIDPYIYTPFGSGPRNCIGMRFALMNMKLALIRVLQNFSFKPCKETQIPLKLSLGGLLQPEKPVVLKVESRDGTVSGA

SMILES: CC1(C)OB(O)c2cc(NC(=O)c3ccc(F)cc3C(F)(F)F)ccc21 [SCYX-7158]
- logD (Lipophilicity): 3.51
- AQ (absorption quotient) ([1]; calculated from Papp with and without GF120918): 0.09
- P-gp substrate status ([1]; from AQ): not a P-gp substrate
- Papp A→B at 1 h, 3 µM ([2]; MDCK-MDR1, with GF120918 2 µM, in presence of P-gp inhibitor GF120918 (2 µM), read-out: Papp A→B + GF120918): 85.3 ×10⁻⁶ cm/s
- Papp A→B at 1 h, 3 µM ([2]; MDCK-MDR1, apical to basolateral, 3 µM (1.1 µg/mL), 1 h, read-out: Papp A→B): 77.6 ×10⁻⁶ cm/s
- half-life at 1 µM [3]: > 5.83 h
- microsomal CLint at 1 µM ([3]; read-out: intrinsic clearance): < 5 µL/min/mg
- IC50 (CYP2D6): 21.1 µM
- IC50 (CYP1A2): > 100 µM
- IC50 (CYP2C9): 23.5 µM
- IC50 (CYP3A4): 47.4 µM
- binding to hERG channel (hERG potassium channel): −6%
